Source: patent publication US20140228540A1, “POLYPEPTIDES THAT BIND TISSUE INHIBITOR OF METALLOPROTEINASE TYPE THREE (TIMP-3), COMPOSITIONS AND METHODS” (Amgen Inc., priority 2009, published 2014)
Residue numbers refer to the chain shown, from its start. Read-outs that look alike come from different tables or passages of the source.

B1: RAP: receptor associated protein, a general inhibitor of LRP-1 (protein, UniProt P30533 35-357, looked up)
Alpha-2-macroglobulin …: YSREKNQPKPSPKRESGEEFRMEKLNQLWEKAQRLHLPPVRLAELHADLKIQERDELAWKKLKLDGLDEDGEKEARLIRNLNVILAKYGLDGKKDARQVTSNSLSGTQEDGLDDPRLEKLWHKAKTSGKFSGEELDKLWREFLHHKEKVHEYNVLLETLSRTEEIHENVISPSDLSDIKGSVLHSRHTELKEKLRSINQGLDRLRRVSHQGYSTEAEFEEPRVIDLWDLAQSANLTDKELEAFREELKHFEAKIEKHNHYQKQLEIAHEKLRHAESVGDGERVSRSREKHALLEGRTKELGYTVKKHLQDLSGRISRARHNEL

Columns and labels:
[1] = test system: biotinylated recombinant human or mouse TIMP-3; experiment: TIMP-3 AlphaScreen binding assay
Protocol: Peptides were also evaluated by AlphaScreen® (Amplified Luminescent Proximity Homogeneous Assay; PerkinElmer, Waltham, Mass.) a very sensitive non-radioactive homogeneous assay technology that allows the screening of a large range of biological interactions and activities, substantially according to the manufacturer's instructions. Briefly, all dilutions are made in AlphaScreen® Buffer: [40 mM HEPES pH 7.5, 100 mM NaCl, 1 mM CaCl2, 0.1% BSA, 0.05% Tween-20]. The LRP-1 peptides are titrated in a separate polypropylene 96-well plate (Falcon) starting at 4 microM concentration and then diluted serially 3-fold for 12-points, with the last point buffer only. First 2 microL/well of protein titration curve is added to white, small volume, 384-well assay plate (Greiner Bio-One, Stonehouse, UK) in duplicate. Next, 2 microL of biotinylated (AFS, in-house conjmicroGation) recombinant human or mouse TIMP-3, is added at 12 nM (or 3 nM final assay concentration) to the assay plate. Lastly, in subdued light 4 microL of a mixture of streptavidin donor beads, anti-mouse IgG acceptor beads (PerkinElmer) both diluted to 20 microG/mL (10 microG/mL final assay concentration) and 2 nM (1 nM final concentration) rat-anti-HA (clone3F10)-HRP (Roche Diagnostics) is added to the plates. Plates containing 8 microL final assay volume are covered with TopSeal A (to prevent evaporation), spun quickly at 1000 rpm, and incubated overnight (covered with foil to prevent light exposure) before reading on Fusion plate reader (PerkinElmer) using AlphaScreen® parameters (excitation 680 nm and emission 520-620 nm). Data is analyzed using GraphPad Prism 4.01 software. Binding to TIMP-3 is reported as total signal (cps).

[2] = target: T1, MuTIMP-3 (Mus musculus, UniProt P39876); experiment: Directly coated TIMP-3 binding ELISA (mouse); settings: mouse TIMP-3; for EC50: direct
T1 sequence (P39876 24-211): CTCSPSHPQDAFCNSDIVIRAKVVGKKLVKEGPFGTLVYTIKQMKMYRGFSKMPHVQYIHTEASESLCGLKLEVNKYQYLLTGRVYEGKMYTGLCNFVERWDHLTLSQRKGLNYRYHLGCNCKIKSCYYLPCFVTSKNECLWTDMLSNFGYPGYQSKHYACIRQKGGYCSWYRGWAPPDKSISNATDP

[3] = test system: HTB-94 cells; experiment: Accumulation of TIMP-3 in the medium of cultured HTB-94 cells; format: cell-based
Protocol: This example describes an assay to evaluate the accumulation of TIMP-3 in the medium of cultured cells. HTB-94™ cells (a chondrocytic cell line available from the American Type Culture Collection, Manassas, Va.) are plated to 24-well tissue culture plates at 1×10̂5 cells per well in 1 ml growth medium (RPM11640, 10% FBS, 1% PSG), and incubated at 37 C, 5% CO2 overnight. The cells are then washed once with PBS, and the wells are replenished with 250 microL serum-free medium (RPM11640, 1% PSG; designated SF in the tables below) to which is added the polypeptide being tested or a control (for example medium containing heparin, 1 mg/ml). Proteins to be tested are diluted to appropriate concentrations, for example as shown in the Tables below, and added to the cells. Cells are then incubated at 37 C, 5% CO2 for two additional days, day 2 conditioned medium (CM) samples are collected and clarified by centrifugation (i.e., for 5 minutes at 10K RPM) and the supernatant fluid is collected and stored at −20 C until assayed. Analysis is done on 100 microL CM samples, either by Western blot or by using a standard human TIMP-3 ELISA as per the manufacturer's protocol (R&D Systems Inc., Minneapolis, Minn.).

[4] = target: TIMP-3; experiment: Binding ELISA of LRP-1 peptides to TIMP-3 (Table 2; format and species not specified); design: species or system human or mouse
[5] = test system: A549 cells; experiment: Binding and internalization of exogenous TIMP-3 by confocal microscopy; format: cell-based, human; settings: in the presence of heparin
Protocol: This example describes the internalization of exogenous TIMP-3 as examined by confocal microscopy. A549 cells (a continuous tumor-cell line from a human lung carcinoma with properties of type II alveolar epithelial cells, either wild-type or A549 cells lacking the LRP-1 gene) were incubated typically with 1 microG/ml TIMP-3 for 30 minutes at 4 degrees, with or without various pre-treatments (including heparin), then washed, fixed and stained with a fluorescently labeled anti-TIMP-3 antibody, or washed and then incubated further at 4 or 37 degrees before fixation and staining. Cells were also assayed for the accumulation of TIMP-3 in the culture medium, by Western blot or ELISA, substantially as described herein.

[6] = target: T2, HuTIMP-3 (Homo sapiens, UniProt P35625); experiment: Directly coated TIMP-3 binding ELISA (human); settings: human TIMP-3; for EC50: direct
T2 sequence (P35625 24-211): T1 sequence (P39876 24-211) with S51T, E87D, H103Q, S183I

[7] = target: T2, HuTIMP-3; experiment: Indirect binding ELISA with TIMP-3 presented via anti-TIMP-3 neutralizing antibody; settings: human TIMP-3
Protocol: After incubation, the plate contents are discarded and 250 microL/well of blocking buffer (1% BSA, TBS [pH 7.5], 1 mM CaCl2) is added to the plate which is incubated with shaking for 1 hour at room temperature. The plate is then washed three times with 200 microL/well with wash buffer 1 (TBS [pH 7.5], 1 mM CaCl2) followed by the addition of 100 microL of 20 nM recombinant human TIMP-3. The plate is incubated at room temperature for 1 hour. The LRP-1 peptides are titrated as described previously, and 100 microL/well of the diluted LRP-1 peptide titration is added to the TIMP-3 coated plate and allowed to bind for 1.5 hour at room temperature with shaking. After incubation, the plate is washed and the ELISA performed substantially as described previously for the direct binding ELISA.

[8] = test system: cultured chondrocytic cells; settings: cited from earlier work
[9] = Assay 2, read-out: Binding ELISA EC50 (nm) Assay 2

Molecule | AlphaScreen total signal (cps) Assay 1 [1] | AlphaScreen total signal (cps) Assay 2 [1] | TIMP-3 (ng/ml) in conditioned medium ([3]; Table 6, peptides 2 microM) [ng/mL] | TIMP-3 (ng/ml) in conditioned medium ([3]; Table 7, peptides 2 microM) [ng/mL] | EC50 [6] [nM] | other results
LA15: LRP-1 peptide monomer, amino acids 2696- (end not printed) | 2,200 cps | 2,000 cps | 1.29 | – | – | EC50 [2]: > 1000 nM
LA21-23: LRP-1 peptide multimer, amino acids 3334- (end not printed) | 3,000 cps | – | – | 4.46 | – | EC50 ([4]; Assay 1, read-out: Binding ELISA EC50 (nm) Assay 1): 243 nM
LA19: LRP-1 peptide monomer, amino acids 2858-2903 | 2,200 cps | – | 1.06 | – | – | EC50 [4, 9]: > 10000 nM
heparin [reference compound] | – | – | – | – | – | TIMP-3 (ng/ml) in conditioned medium ([3]; Table 5, heparin control (1 mg/ml per method)): 10.98 ng/mL; TIMP-3 (ng/ml) in conditioned medium ([3]; Table 6, heparin control (1 mg/ml per method)): 14.55 ng/mL; TIMP-3 (ng/ml) in conditioned medium ([3]; Table 7, heparin control (1 mg/ml per method)): 26.15 ng/mL; TIMP-3 (ng/ml) in conditioned medium ([3]; Table 8, heparin control (1 mg/ml per method)): 17.31 ng/mL; Binding of TIMP-3 to the cell surface [5]: decreased
LA5-6: LRP-1 peptide multimer, amino acids 931-1014 | 6,000 cps | 4,000 cps | – | 2.38 | > 1000 | –
LA4: LRP-1 peptide monomer, amino acids 895-930 | 2,200 cps | 2,000 cps | 1.07 | – | – | EC50 in TIMP-3 Binding ELISA, Indirect HuTIMP-3 [7]: no binding; EC50 in TIMP-3 Binding ELISA, Direct HuTIMP-3 [6]: no binding; EC50 in TIMP-3 Binding ELISA, Direct MuTIMP-3 [2]: no binding
LA18: LRP-1 peptide monomer, amino acids 2818-2857 | 2,200 cps | – | 1.11 | – | – | EC50 [4, 9]: > 10000 nM
LA8-10: LRP-1 peptide multimer, amino acids 1062- (end not printed) | 110,000 cps | 100,000 cps | – | 3.91 | > 1000 | –
LA28: LRP-1 peptide monomer, amino acids 3613-3653 | 2,200 cps | – | – | 0.99 | > 1000 | EC50 [2]: > 1000 nM
LA23: LRP-1 peptide monomer, amino acids 3413-3452 | 2,200 cps | – | 0.87 | – | – | EC50 [4, 9]: > 5000 nM
LA7: LRP-1 peptide monomer, amino acids 1015- (end not printed) | 2,200 cps | – | 0.90 | – | > 1000 | EC50 [7]: > 1000 nM; EC50 [2]: > 1000 nM
B1 | – | – | – | – | – | levels of TIMP-3 in the medium of cultured chondrocytic cells [8]: increases
